Experimental data from patent US20100069382A1, “Agent for prophylaxis or treatment of alcohol dependence or drug dependence” (priority 2006, published 2010).
Where two headings read alike, the source gives them in different places.

How the values were obtained:
[1] = Economidou et al., Peptides 27, 3299-3306, 2006, cited from earlier work
[2] = existing medicines, known profile, cited from earlier work
[3] = system: Wistar rats; experiment: Effect on alcohol withdrawal symptoms in Wistar rats; type: in vivo, rat
Method: Male Wistar rats were used in this study. According to the protocol shown in FIG. 1, rats were orally given 12-15 g/kg/body weight of ethanol in 24 hours on day 1 to day 2 and 9-10 g/kg/body weight of ethanol in 12 hours on day 3 to day 5. Compound A was administered p.o. at doses of 0.3 and 1 mg/kg/body weight twice after 2 and 7 hours of last ethanol administration. Four types of alcohol withdrawal symptoms such as vocalization, ventromedial limb retraction, tail rigidity, tail tremors were observed and scored with following 3 rating scales: mild=0, moderate=1, severe=2.

[4] = system: msP rats; experiment: Effect on alcohol intake in msP rats; type: in vivo, rat
Method: Male genetically selected alcohol-preferring rats known as Marchigian Sardinian alcohol-preferring (msP) rats were used in this study (Addiction Biol. 11, 339-355, 2006). […] Compound A at doses of 0.3 and 1 mg/kg/body weight was orally administered twice for 9 days at 1 hour before and 8 hours after onset of dark period.

[5] = system: msP rats; experiment: Yohimbine-induced reinstatement of alcohol-seeking behavior in msP rats; type: in vivo, rat
Source text: Male genetically selected alcohol-preferring rats known as msP rats were used in this study (Addiction Biol. 11, 339-355, 2006). […] After acquisition of a stable baseline of 10% ethanol self-administration, rats were subjected to 30-min extinction sessions for 15 consecutive days. Extinction sessions were identical to 10% ethanol self-administration sessions, however alcohol was no longer available. Beginning on extinction day 10, rats were divided into three groups with similar baseline levels of responding for 10% ethanol. For six consecutive days, 1 hour before the self-administration session and 8 hours later, each group of rats were orally given vehicle, 0.3 mg/kg of Compound A or 1.0 mg/kg of Compound A. After the extinction sessions, rats were given yohimbine (1,25 mg/kg, i.p.) 35 min before the test sessions. The 30-min reinstatement test was conducted under extinction condition.
Yohimbine was used as stressor for this study, because yohimbine is known to produce stress and anxiety-like states in both humans and non-humans (Bremner et al, 1996; Charney et al 1983; Holmberg et al 1963).

[6] = system: msP rats; experiment: Study on dependence elicitation (conditioned place preference) in msP rats; type: in vivo, rat
Method: A two-compartment box divided by guillotine door was used. […] For the following 6 days, the rats were treated on alternate days with three Compound A-pairing administrations (0.3 and 1.0 mg/kg/body weight, p.o.) and three vehicle-pairing administrations immediately before being placed, for 1 hour, into the assigned chamber with guillotine door close for drug-compartment discrimination (conditioning). The day after the last conditioning session, the rats were placed, for 15 min, in the box with door open. The time spent in the drug paired compartment was measured.

[7] = 0.3 and 1 mg/kg/body weight p.o. twice, 2 and 7 hours after last ethanol, observed 8 to 24 hours after last ethanol administration, FIG. 2

O=C1NCN(c2ccccc2)C12CCN([C@@H]1CC[C@H]3CCCc4cccc1c43)CC2 [Ro64-6198]
alcohol drinking [1]: failed to decrease alcohol drinking | alcohol drinking at high dose ([1]; high dose): increase

Clc1cccc(Cl)c1N=C1NCCN1 [Clonidine]
Ameliorative effect on alcohol withdrawal symptoms [2]: yes | Presence/absence of dependence [2]: absent | Suppressive effect on excessive alcohol intake [2]: none | Suppressive effect on stress-induced reinstatement [2]: none | Ameliorative effect on alcohol withdrawal symptoms ([2]; listed as clonidine): effective | Suppressive effect on excessive alcohol intake ([2]; listed as clonidine): ineffective | Suppressive effect on stress-induced reinstatement ([2]; listed as clonidine): ineffective

CNC(=O)Cn1c(=O)n(C2CCN([C@@H]3Cc4cccc5cccc3c45)CC2)c2ccccc21 [Compound A, (R)-2-{3-[1-(acenaphthen-1-yl)piperidin-4-yl]-2,3-dihydro-2-oxo-benzimidazol-1-yl}-N-methylacetamide]
score of tail rigidity (alcohol withdrawal symptom) [3, 7]: significantly and dose-dependently decreased | score of tail tremors (alcohol withdrawal symptom) [3, 7]: significantly and dose-dependently decreased | score of ventromedial limb retraction (alcohol withdrawal symptom) [3, 7]: significantly and dose-dependently decreased | Ameliorative effect on alcohol withdrawal symptoms ([3]; Table 1 summary, Compound A): yes | ethanol consumption ([4]; 0.3 and 1 mg/kg/body weight orally twice daily for 9 days, free choice water / 10% ethanol, FIG. 4): significantly and dose-dependently decreased | Suppressive effect on excessive alcohol intake ([4]; Table 1 summary, Compound A): yes | duration of significant decrease of ethanol consumption after withdrawal of Compound A ([4]; after 9 days of oral dosing at 0.3 and 1 mg/kg/body weight, FIG. 4): 9 days | yohimbine stress-induced reinstatement of alcohol-seeking behavior ([5]; 1 mg/kg orally twice daily for six days, yohimbine 1,25 mg/kg i.p., FIG. 6): significantly attenuated | Suppressive effect on stress-induced reinstatement ([5]; Table 1 summary, Compound A): yes | place preference (time spent in drug paired compartment) ([6]; 0.3 and 1.0 mg/kg/body weight p.o., three pairings, FIG. 8): induced place preference at neither 0.3 nor 1 mg/kg/body weight | Presence/absence of dependence ([6]; Table 1 summary, Compound A): absent | dependence elicitation by the compound itself ([6]; conclusion from conditioned place preference at 0.3 and 1 mg/kg/body weight): does not elicit dependence

O=C1CC[C@@]2(O)[C@H]3Cc4ccc(O)c5c4[C@@]2(CCN3CC2CC2)[C@H]1O5 [Naltrexone]
Ameliorative effect on alcohol withdrawal symptoms [2]: none | Presence/absence of dependence [2]: absent | Suppressive effect on excessive alcohol intake [2]: yes | Suppressive effect on stress-induced reinstatement [2]: none | Ameliorative effect on alcohol withdrawal symptoms ([2]; listed as naltrexone): ineffective | Suppressive effect on excessive alcohol intake ([2]; listed as naltrexone): effective | Suppressive effect on stress-induced reinstatement ([2]; listed as naltrexone): ineffective

CN1C(=O)CN=C(c2ccccc2)c2cc(Cl)ccc21 [Diazepam]
Ameliorative effect on alcohol withdrawal symptoms [2]: yes | Presence/absence of dependence [2]: present | Suppressive effect on excessive alcohol intake [2]: none | Suppressive effect on stress-induced reinstatement [2]: none | Presence/absence of dependence ([2]; listed as diazepam): induce dependence

CC(=O)NCCCS(=O)(=O)O [Acamprosate]
Ameliorative effect on alcohol withdrawal symptoms [2]: none | Presence/absence of dependence [2]: absent | Suppressive effect on excessive alcohol intake [2]: yes | Suppressive effect on stress-induced reinstatement [2]: none | Ameliorative effect on alcohol withdrawal symptoms ([2]; listed as acamprosate): ineffective | Suppressive effect on excessive alcohol intake ([2]; listed as acamprosate): effective | Suppressive effect on stress-induced reinstatement ([2]; listed as acamprosate): ineffective
